Consider 6 compounds from patent publication US5496854A, “Metallocenes as anti-tumor drugs” (Technion Research & Development Foundation Ltd., priority 1992, dated 1996).

The test system of one data set is P-388 Mouse Leukemia. The data set is described as follows: Cytotoxicity (growth inhibition), P-388. An excerpt: (§1) The value of the ratio Ti/Pt represents the relative activity of TPE as compared with that of cis-platinum.
(§2) The excipient can serve as an agent for promoting absorption of the medicament by the body or as formulation auxiliary, sweetener, flavouring agent, colourant or preservative. […] The novel titanocene derivatives, according to the present invention, can be prepared from common chemical reagents using standard equipment. It should be realized, that the Examples for their preparations presented hereinafter are only for illustration and many other routes may be conceived for their syntheses.

Data set [1] relates to Ovcar-3 Ovarian Carcinoma. The data set is described as follows: Cytotoxicity (growth inhibition), Ovcar-3.
Text: as §1, §2

Data set [2] relates to NHEK Normal Keratino Epithelial. Nature of the data set: Cytotoxicity (growth inhibition), NHEK.
Text: as §1, §2

A further data set deals with UCLA-P3 Lung Carcinoma. Nature of the data set: Cytotoxicity (growth inhibition), UCLA-P3.
Text: as §1, §2

A further data set deals with HL-60 B-cell Leukemia. Nature of the data set: Cytotoxicity (growth inhibition), HL-60.
Text: as §1, §2

The subject of a further data set is H-322 Lung Carcinoma. The data set is described as follows: Cytotoxicity (growth inhibition), H-322.
Text: as §1, §2

In data set [3] the test system is Capan 1 Pancreas Carcinoma. The data set is described as follows: Cytotoxicity (growth inhibition), Capan 1.
Text: as §1, §2

Another data set deals with Molt-4 T-cell Leukemia. Nature of the data set: Cytotoxicity (growth inhibition), Molt-4. To be noted: for cytotoxicity (log.): molt-4 cells.
Text: as §1, §2

Data set [4] concerns HMEC Normal Human Mammary. Nature of the data set: Cytotoxicity (growth inhibition), HMEC.
Text: as §1, §2

A further data set concerns HT-29 Colon Carcinoma. The data set is described as follows: Cytotoxicity (growth inhibition), HT-29.
Text: as §1, §2

Data set [5] concerns CHO Chinese Hamstead Ovary. Nature of the data set: Cytotoxicity (growth inhibition), CHO.
Text: as §1, §2

A further data set has as its system NHDF Normal Human Skin. Nature of the data set: Cytotoxicity (growth inhibition), NHDF.
Text: as §1, §2

Another data set concerns SK-Mel-28 Melanoma. The data set is described as follows: Cytotoxicity (growth inhibition), SK-Mel-28.
Text: as §1, §2

The subject of another data set is MCF-7 Breast Cancer. The data set is described as follows: Cytotoxicity (growth inhibition), MCF-7.
Text: as §1, §2

The subject of another data set is tumor. To be noted: prior art; cited from earlier work.

Where two headings read alike, the source gives them in different places.

Turning to `COC(=O)c1ccc([O-])cc1.COC(=O)c1ccc([O-])cc1.[Ti+4].c1cc[cH-]c1.c1cc[cH-]c1` [TPE, Bis(4-methoxycarbonylphenolato)bis(n^5-cyclopentadienyl)titanium(IV)], the IC50 (in general, the concentration at which inhibition is half-maximal) in the data set on P-388 Mouse Leukemia (p-388 cells) was determined as 3.9 µM; in data set [1] (ovcar-3 cells), 6.3 µM; in the data set with UCLA-P3 Lung Carcinoma (ucla-p3 cells) it was 3.1 µM; with HL-60 B-cell Leukemia (hl-60 cells), 3.1 µM; in the data set with H-322 Lung Carcinoma (h-322 cells), 0.63 µM; in [3] (capan 1 cells), 0.39 µM. In addition, the 50% inhibitory concentration (IC50) in the data set on HT-29 Colon Carcinoma (ht-29 cells) is 3.9 µM; in data set [5] (cho cells), 13 µM; in the data set with SK-Mel-28 Melanoma (sk-mel-28 cells), 1.6 µM; in the data set on MCF-7 Breast Cancer (mcf-7 cells), 2 µM. For the same compound, the “cytotoxicity (log.)” value is recorded as -5.41 log. (M) in the data set with P-388 Mouse Leukemia (p-388 cells); -5.20 log. (M) in data set [1] (ovcar-3 cells); -5.51 log. (M) in data set [2] (human, nhek cells); -5.51 log. (M) in the data set with UCLA-P3 Lung Carcinoma (ucla-p3 cells); -5.70 log. (M) in the data set on HL-60 B-cell Leukemia (hl-60 cells); -6.20 log. (M) in the data set on H-322 Lung Carcinoma (h-322 cells). For the same compound, the “cytotoxicity (log.)” value in data set [3] (capan 1 cells) is reported as -6.41 log. (M); with Molt-4 T-cell Leukemia it was -6.00 log. (M); in data set [4] (human, hmec cells), -5.70 log. (M); in the data set on HT-29 Colon Carcinoma (ht-29 cells), -5.41 log. (M); in data set [5] (cho cells), -4.80 log. (M); in the data set on NHDF Normal Human Skin (human, nhdf cells), -5.41 log. (M). Further, the results for the “cytotoxicity (log.)” value with SK-Mel-28 Melanoma (sk-mel-28 cells) and in the data set with MCF-7 Breast Cancer (mcf-7 cells) were -5.41 log. (M) and -5.70 log. (M), respectively. For the same compound, the “ratio Ti/Pt” value in data set [1] (Ovcar-3, relative activity of TPE as compared with cis-platinum) turned out to be 10; in data set [2] (NHEK, relative activity of TPE as compared with cis-platinum), 200; in the data set with UCLA-P3 Lung Carcinoma (UCLA-P3, relative activity of TPE as compared with cis-platinum) it was 20; in the data set on HL-60 B-cell Leukemia (HL-60, relative activity of TPE as compared with cis-platinum), 2; in the data set with H-322 Lung Carcinoma (H-322, relative activity of TPE as compared with cis-platinum), 100; in data set [3] (Capan 1, relative activity of TPE as compared with cis-platinum) it was 10. For the same compound, the “ratio Ti/Pt” value with Molt-4 T-cell Leukemia (Molt-4, relative activity of TPE as compared with cis-platinum) came to 10; in data set [4] (HMEC, relative activity of TPE as compared with cis-platinum), 20; in the data set on HT-29 Colon Carcinoma (HT-29, relative activity of TPE as compared with cis-platinum), 200; in data set [5] (CHO, relative activity of TPE as compared with cis-platinum), 2; in the data set on NHDF Normal Human Skin (NHDF, relative activity of TPE as compared with cis-platinum), 20; in the data set with SK-Mel-28 Melanoma (SK-Mel-28, relative activity of TPE as compared with cis-platinum) it was 10. For the same compound, the “ratio Ti/Pt” value in the data set on MCF-7 Breast Cancer (MCF-7, relative activity of TPE as compared with cis-platinum) is recorded as 100. Further, the CC50 in [2] (human, nhek cells) is 3.1 µM; in [4] (human, hmec cells) it was 3.1 µM; with NHDF Normal Human Skin (human, nhdf cells), 1.6 µM.
In the case of `CCOC(=O)c1ccc([O-])cc1.CCOC(=O)c1ccc([O-])cc1.[Ti+4].c1cc[cH-]c1.c1cc[cH-]c1` [TEE-1, Bis(4-ethoxycarbonylphenolato)bis(n^5-cyclopentadienyl)titanium(IV)], the “cytotoxicity (log.)” value with P-388 Mouse Leukemia (p-388 cells) is given as -4.89 log. (M); in [1] (ovcar-3 cells), -5.20 log. (M); in data set [2] (human, nhek cells) it was -5.80 log. (M); with UCLA-P3 Lung Carcinoma (ucla-p3 cells), -5.20 log. (M); in the data set on HL-60 B-cell Leukemia (hl-60 cells) it was -5.51 log. (M); with H-322 Lung Carcinoma (h-322 cells), -5.80 log. (M). Besides, the “cytotoxicity (log.)” value is recorded as -5.51 log. (M) in data set [3] (capan 1 cells); -7.00 log. (M) in the data set with Molt-4 T-cell Leukemia; -6.11 log. (M) in [4] (human, hmec cells); -5.20 log. (M) in the data set with HT-29 Colon Carcinoma (ht-29 cells); -4.60 log. (M) in data set [5] (cho cells); -4.89 log. (M) in the data set on NHDF Normal Human Skin (human, nhdf cells). In addition, the “cytotoxicity (log.)” value in the data set on SK-Mel-28 Melanoma (sk-mel-28 cells) is reported as -5.51 log. (M); with MCF-7 Breast Cancer (mcf-7 cells), -5.80 log. (M).
As to `C[N+](C)(C)CCOC(=O)c1ccc([O-])cc1.C[N+](C)(C)CCOC(=O)c1ccc([O-])cc1.[Ti+4].c1cc[cH-]c1.c1cc[cH-]c1` [TCE, Bis[4-(2-trimethylammono)ethoxycarbonylphenolato]bis(n^5-cyclopentadienyl)titanium(IV)], the “cytotoxicity (log.)” value in data set [1] (ovcar-3 cells) is -4.00 log. (M); in the data set on H-322 Lung Carcinoma (h-322 cells), -4.00 log. (M); in data set [3] (capan 1 cells), -4.00 log. (M); with Molt-4 T-cell Leukemia it was -4.00 log. (M); in the data set with HT-29 Colon Carcinoma (ht-29 cells) it was -4.00 log. (M); in the data set on MCF-7 Breast Cancer (mcf-7 cells), -4.30 log. (M).
Turning to “titanocene dichloride [TDC, reference compound]”, the half-maximal inhibitory concentration (IC50) stood at 500 µM in the data set with P-388 Mouse Leukemia (read-out: IC50 (cytotoxic data), P-388); 1000 µM in data set [1] (read-out: IC50 (cytotoxic data), Ovcar-3); 1000 µM in the data set with UCLA-P3 Lung Carcinoma (read-out: IC50 (cytotoxic data), UCLA-P3); 1000 µM in the data set on HL-60 B-cell Leukemia (read-out: IC50 (cytotoxic data), HL-60); 1000 µM in the data set on H-322 Lung Carcinoma (read-out: IC50 (cytotoxic data), H-322); 500 µM in [3] (read-out: IC50 (cytotoxic data), Capan 1). The concentration for half-maximal inhibition (IC50) with Molt-4 T-cell Leukemia (read-out: IC50 (cytotoxic data), Molt-4) came out at 1000 µM; in the data set on HT-29 Colon Carcinoma (read-out: IC50 (cytotoxic data), HT-29), 500 µM; in data set [5] (read-out: IC50 (cytotoxic data), CHO), 1000 µM; with SK-Mel-28 Melanoma (read-out: IC50 (cytotoxic data), SK-Mel-28), 1000 µM; with MCF-7 Breast Cancer (read-out: IC50 (cytotoxic data), MCF-7), 1000 µM. For the same compound, the CC50 was determined as 1000 µM in data set [2] (read-out: IC50 (cytotoxic data), NHEK); 130 µM in data set [4] (read-out: IC50 (cytotoxic data), HMEC); 1000 µM in the data set with NHDF Normal Human Skin (read-out: IC50 (cytotoxic data), NHDF). Besides, the anti-tumor activity result in the data set on tumor is given as “very reactive anti-tumor reagent”.
With `COCCOCCOC(=O)c1ccc([O-])cc1.COCCOCCOC(=O)c1ccc([O-])cc1.[Ti+4].c1cc[cH-]c1.c1cc[cH-]c1` [TEG, Bis[4-(2-(2-methoxyethoxy)ethoxy]carbonylphenolato]bis(n^5-cyclopentadienyl)titanium(IV)], the “cytotoxicity (log.)” value (in [1] (ovcar-3 cells); in the data set on Molt-4 T-cell Leukemia) was -4.00 log. (M) each time.
As to `COCCOC(=O)c1ccc([O-])cc1.COCCOC(=O)c1ccc([O-])cc1.[Ti+4].c1cc[cH-]c1.c1cc[cH-]c1` [TMEM, Bis[4-(2-methoxy)ethoxycarbonylphenolato]bis(n^5-cyclopentadienyl)titanium(IV)], the “cytotoxicity (log.)” value in data set [1] (ovcar-3 cells) was -4.60 log. (M); with HL-60 B-cell Leukemia (hl-60 cells), -4.60 log. (M); in the data set with H-322 Lung Carcinoma (h-322 cells), -4.89 log. (M); in [3] (capan 1 cells), -4.89 log. (M); in the data set on Molt-4 T-cell Leukemia it was -7.00 log. (M); in [4] (human, hmec cells), -4.60 log. (M). Besides, the “cytotoxicity (log.)” value in the data set on HT-29 Colon Carcinoma (ht-29 cells) was -4.60 log. (M); in [5] (cho cells) it was -4.30 log. (M); in the data set with NHDF Normal Human Skin (human, nhdf cells), -4.30 log. (M); with SK-Mel-28 Melanoma (sk-mel-28 cells), -4.60 log. (M); in the data set with MCF-7 Breast Cancer (mcf-7 cells) it was -4.89 log. (M).
